{"source": "patent US11117947B2", "about": "“Double-acylated GLP-1 derivatives” (Novo Nordisk A/S, priority 2011, dated 2021)", "assay_type_in_all_cases": "in vivo", "key": {"[1]": {"test": "Estimate of oral bioavailability: gut injection in rat (caprate), exposure in plasma", "settings": "injection in jejunum, 1000 uM in 55 mg/ml sodium caprate, plasma concentration (pM) at 30 min divided by dosing solution concentration (μM), mean n=4", "summary_of_the_method": "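Male Sprague Dawley rats (~240 g, n=4) received 100 μl of 1000 uM derivative in 55 mg/ml sodium caprate by catheter into proximal or mid jejunum. Tail-vein EDTA plasma was sampled up to 240 min. Peptide was quantified by two-antibody bead chemiluminescence immunoassay, giving mean concentration-time profiles (pmol/l).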"}, "[2]": {"test": "Pharmacokinetics in rat: half-life after i.v. administration", "settings": "plasma, iv, 6 nmol/kg, male Sprague Dawley rats, approximately 4 rats per group, read-out: t½/h (half-life in rat) (converted)", "protocol": "In vivo pharmacokinetic studies in rats were performed with the GLP-1 derivatives of Examples 2, 10, 17-18, and 31, as described in the following. Semaglutide was included for comparison.\nMale Sprague Dawley rats of same age with a body weight of approximately 400 g were obtained from Taconic (Denmark) and assigned to the treatments by simple randomisation on body weight, approximately 4 rats per group, so that all animals in each group were of similar body weight.\nThe GLP-1 derivatives (approximately 6 nmol/ml) were dissolved in 50 mM sodium phosphate, 145 mM sodium chloride, 0.05% tween 80, pH 7.4. Intravenous injections (1.0 ml/kg) of the compounds were given through a catheter implanted in the right jugular vein. Blood was sampled from vena sublingualis for 5 days post dosing. Blood samples (200 μl) were collected in EDTA buffer (8 mM) and then centrifuged at 4° C. and 10000 G for 5 minutes. Plasma samples were kept at −20° C. until analyzed for plasma concentration of the respective GLP-1 compound.\nThe plasma concentrations of the GLP-1 compounds were determined using a Luminescence Oxygen Channeling Immunoasssay (LOCI), generally as described for the determination of insulin by Poulsen and Jensen in Journal of Biomolecular Screening 2007, vol. 12, p. 240-247. The donor beads were coated with streptavidin, while acceptor beads were conjugated with a monoclonal antibody recognising a mid-/C-terminal epitope of the peptide. Another monoclonal antibody, specific for the N-terminus, was biotinylated. The three reactants were combined with the analyte and formed a two-sited immuno-complex. Illumination of the complex released singlet oxygen atoms from the donor beads, which were channeled into the acceptor beads and triggered chemiluminescence which was measured in an Envision plate reader. The amount of light was proportional to the concentration of the compound.\nPlasma concentration-time profiles were analyzed using Phoenix WinNonLin ver. 6.2, Pharsight Inc., Mountain View, Calif., USA), and the half-life (T1/2) calculated using individual plasma concentration-time profiles from each animal."}, "[3]": {"test": "Half-life in minipigs after i.v. administration", "settings": "minipig, plasma, iv, male Göttingen minipigs, read-out: terminal half-life (converted)", "excerpt": "By terminal half-life is generally meant the period of time it takes to halve a certain plasma concentration, measured after the initial distribution phase."}}, "note": "Numbered stars: 1 amine (or outer) side, 2 acyl side, 3 side chain; on linkers, the order of the positions; unused ones are H or OH. Side chains are listed from the residue outwards. Peptide text beside a SMILES is read from it. * marks the point of attachment. Decanoyl(10-(4-HOOC-PhO)) = O=C(O)c1ccc(OCCCCCCCCCC(=O)*)cc1; γGlu = O=C(O)[C@H](CCC(=O)[*:2])N[*:1]; AEEA = NCCOCCOCC(=O)O", "data": [{"compound": "CC[C@H](C)[C@H](NC(=O)[C@H](Cc1ccccc1)NC(=O)[C@H](CCCCNC(=O)COCCOCCNC(=O)COCCOCCNC(=O)CC[C@H](NC(=O)CCCCCCCCCOc1ccc(C(=O)O)cc1)C(=O)O)NC(=O)[C@H](CCCNC(=N)N)NC(=O)[C@H](C)NC(=O)[C@H](C)NC(=O)[C@H](CCC(N)=O)NC(=O)[C@H](CCC(=O)O)NC(=O)[C@H](CCC(=O)O)NC(=O)[C@H](CC(C)C)NC(=O)[C@H](Cc1ccc(O)cc1)NC(=O)[C@H](CO)NC(=O)[C@H](CO)NC(=O)[C@@H](NC(=O)[C@H](CC(=O)O)NC(=O)[C@H](CO)NC(=O)[C@@H](NC(=O)[C@H](Cc1ccccc1)NC(=O)[C@@H](NC(=O)CNC(=O)[C@H](CCC(=O)O)NC(=O)[C@H](C)NC(=O)[C@@H](N)Cc1c[nH]cn1)[C@@H](C)O)[C@@H](C)O)C(C)C)C(=O)N[C@@H](CCC(=O)O)C(=O)N[C@@H](Cc1c[nH]c2ccccc12)C(=O)N[C@@H](CC(C)C)C(=O)N[C@H](C(=O)N[C@@H](CCCNC(=N)N)C(=O)NCC(=O)N[C@@H](CCCCNC(=O)COCCOCCNC(=O)COCCOCCNC(=O)CC[C@H](NC(=O)CCCCCCCCCOc1ccc(C(=O)O)cc1)C(=O)O)C(=O)NCC(=O)N[C@@H](CCC(=O)O)C(=O)NCC(=O)O)C(C)C", "note": "[Example 2, N^ε27-[2-[2-[2-[[2-[2-[2-[[(4S)-4-carboxy-4-[10-(4-carboxyphenoxy)decanoylamino]butanoyl]amino]ethoxy]ethoxy]acetyl]amino]ethoxy]ethoxy]acetyl], N^ε36-[2-[2-[2-[[2-[2-[2-[[(4S)-4-carboxy-4-[10-(4-carboxyphenoxy)decanoylamino]butanoyl]amino]ethoxy]ethoxy]acetyl]amino]ethoxy]ethoxy]acetyl]-[Glu^22,Arg^26,Lys^27,Glu^30,Arg^34,Lys^36]-GLP-1-(7-37)-peptidyl-Glu-Gly] (H-HAEGTFTSDVSSYLEEQAARK([AEEA-AEEA-γGlu-Decanoyl(10-(4-HOOC-PhO))])FIEWLVRGK([AEEA-AEEA-γGlu-Decanoyl(10-(4-HOOC-PhO))])GEG-OH; N-terminus and C-terminus assumed)", "values": [{"measurement": "Dose-corrected exposure at 30 min", "setting": "[1]", "value": 98}, {"measurement": "half-life", "setting": "[2]", "value": 26, "unit": "h"}, {"measurement": "half-life", "setting": "[3]", "value": 87, "unit": "h"}]}]}
